Holding throughout (format): cell-based
The target of assay [1] is T1, OPRD (Homo sapiens, UniProt P41143). The assay can be described thus: qHTS cAMP assay, antagonist mode, HDOR cells. On the technique in general: Quantitative high-throughput screening tests each substance at several concentrations.
Assay [2] has as its target T2, OPRK (Homo sapiens, UniProt P41145). The assay can be described thus: cell-based.
Assay [3] has as its target T3, OPRM (Homo sapiens, UniProt P35372). The assay can be described thus: cell-based.
Assay [4] concerns the target T1, OPRD. The assay is described as follows: qHTS cAMP assay, agonist mode, HDOR cells. The following applies: CHO-K1 cells expressing human δ-OPR (HDOR).
The target of assay [5] is T2, OPRK. The assay is described as follows: qHTS cAMP assay, agonist mode, HKOR cells.
For assay [6], the target named is T3, OPRM. The assay is described as follows: cell-based. This is another data set of the same source.
Setting [7] is: OPRK-agonist, CHO-K1 cells expressing human κ-OPR (HKOR), cAMP.

Read-outs that look alike come from different tables or passages of the source.

The term IC50 denotes the midpoint of a concentration-inhibition curve. By AC50 is commonly meant the midpoint of the concentration-response curve, whichever way the signal moves. Read a low AC50 as activity at low concentration.

T2 sequence (P41145 whole entry): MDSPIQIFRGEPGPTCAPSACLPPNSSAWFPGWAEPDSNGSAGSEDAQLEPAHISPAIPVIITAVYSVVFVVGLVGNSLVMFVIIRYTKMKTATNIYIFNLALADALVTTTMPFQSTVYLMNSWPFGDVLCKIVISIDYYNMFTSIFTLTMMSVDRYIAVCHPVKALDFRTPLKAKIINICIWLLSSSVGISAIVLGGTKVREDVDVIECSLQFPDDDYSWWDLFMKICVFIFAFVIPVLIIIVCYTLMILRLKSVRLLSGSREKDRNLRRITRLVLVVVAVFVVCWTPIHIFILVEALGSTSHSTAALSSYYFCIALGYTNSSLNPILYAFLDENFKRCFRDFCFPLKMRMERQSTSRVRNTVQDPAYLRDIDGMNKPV
T1 sequence (P41143 whole entry): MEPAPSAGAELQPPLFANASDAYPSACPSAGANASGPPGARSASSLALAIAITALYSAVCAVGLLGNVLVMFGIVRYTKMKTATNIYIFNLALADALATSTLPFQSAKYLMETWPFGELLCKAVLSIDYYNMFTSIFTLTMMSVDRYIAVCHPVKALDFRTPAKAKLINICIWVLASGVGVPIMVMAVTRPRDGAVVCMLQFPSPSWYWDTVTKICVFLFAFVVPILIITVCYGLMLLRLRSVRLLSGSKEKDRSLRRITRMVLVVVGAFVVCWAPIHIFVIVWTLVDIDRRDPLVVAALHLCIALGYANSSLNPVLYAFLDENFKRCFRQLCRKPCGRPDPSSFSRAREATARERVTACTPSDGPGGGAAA
T3 sequence (P35372 whole entry): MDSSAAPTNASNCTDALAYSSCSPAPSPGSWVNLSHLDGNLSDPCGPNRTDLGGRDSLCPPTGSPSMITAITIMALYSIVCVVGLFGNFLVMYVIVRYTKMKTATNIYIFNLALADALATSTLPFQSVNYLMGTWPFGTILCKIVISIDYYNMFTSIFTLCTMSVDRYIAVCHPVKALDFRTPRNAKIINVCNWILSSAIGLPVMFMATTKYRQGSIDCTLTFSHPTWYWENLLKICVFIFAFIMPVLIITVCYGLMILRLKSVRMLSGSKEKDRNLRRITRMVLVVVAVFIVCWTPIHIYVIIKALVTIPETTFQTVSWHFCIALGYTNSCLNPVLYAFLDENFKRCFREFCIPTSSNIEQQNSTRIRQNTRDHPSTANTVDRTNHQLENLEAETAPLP

As to `Nc1ncnc2c1ncn2[C@@H]1O[C@@H]2COP(O)(=S)O[C@H]2[C@H]1O` (some centres unmarked) [NCGC00485585-01, Adenosine 3’,5’-cyclothiophosphate], the IC50 in assay [1] (OPRD, antagonist mode, range given for all three receptors) lay within 40 to 70 nM; in assay [2] it was 40 to 70 nM; in assay [3], 40 to 70 nM. Also, the AC50 in assay [1] (OPRD-antagonist, HDOR cells, with 2nM dynorphin B) is 40 nM; in assay [2], 70 nM; in assay [3] it was 60 nM.
For `CCCN(CCC)S(=O)(=O)c1ccc(C(=O)Nc2sc3c(c2C(=O)OC)CCN(CC)C3)cc1` [NCGC00139128-01], the AC50 in assay [4] is 2060 nM.
In assay [5] (setting [7]), `Cc1cc(Cl)ccc1OCC(=O)N(Cc1ccc(N(C)C)cc1)CC1CCCO1` (centres unmarked) [NCGC00117293-01] had an AC50 of 2500 nM.
In assay [6], `O=C(CC(c1ccccc1)c1ccccc1)N1CCN(C(c2ccccc2)c2ccccc2)CC1` [NCGC00378879-01, NP-118809] had a half-maximal activity concentration (AC50) of 1830 nM.
On the same count and under the same terms, to `Cc1cccc(OCC(=O)NCC2(N3CCN(C)CC3)CCCCC2)c1C` [NCGC00118605-01] belongs 1830 nM; to `O=C(Nc1ccccc1C(F)(F)F)N1CCC(CN2CCc3ccccc3C2)CC1` [NCGC00123899-01], 920 nM.
`N#CC(CCCN1CCC(O)(c2ccc(Cl)cc2)CC1)(c1ccccc1)c1ccccc1` [NCGC00378719-01, VUF-2274] showed an AC50 in assay [6] of 410 nM.
Same read-out and setting: to `O=C(NCCN1CCC(n2c(=O)[nH]c3ccccc32)CC1)c1cc2cc(F)ccc2[nH]1` [NCGC00370807-05, FIPI] belongs 580 nM; to `COc1ccccc1N1CCN(CC[C@@](C)(C(=O)C2CCCCC2)c2ccccc2)CC1` [NCGC00386484-01, LY 426965], 180 nM.
For the compound `COc1ccccc1N1CCN(Cc2cc(COC(C)C)c3cccnc3c2O)CC1` [NCGC00114968-02], the AC50 in assay [3] is 650 nM. That is a sub-micromolar value.
In turn, `CCn1c(=N)n(CCOc2ccc(Br)cc2)c2ccccc21` [NCGC00141762-01] came in with an AC50 in assay [6] of 2060 nM.
The compound `O=C(O)c1ccc(O)c2ncc(N3CCCN(CCc4cccc5ccccc45)CC3)cc12` [NCGC00247751-02] returned an AC50 in assay [6] of 650 nM.
The same measure, in the same setting: to `O=C(NCCCc1nc2ccccc2n1Cc1ccccc1Cl)C1CCCCC1` [NCGC00114743-01] belongs 1640 nM; to `Cc1cn(CCN2CCN(c3ccccc3-c3cc(C#N)cc(C(=O)NCCCN4CCCC4)c3)CC2)c2ccccc12` [NCGC00356417-05, LLY-507], 130 nM.
Same read-out and setting: to `CCCC1=Nc2cc(C(=O)N3CCC(C)CC3)ccc2Sc2ccc(C)cc21` [NCGC00107633-01] belongs 920 nM.
In assay [2], `COc1ccc(NC(=O)Cn2c(=O)n(-c3ccc(CC(=O)NCC4CCCO4)cc3)c(=O)c3ccccc32)c(OC)c1` (centres unmarked) [NCGC00106344-01] displayed an AC50 of 2060 nM and an IC50 of 2060 nM.
On to `O=C(NCCCc1nc2ccccc2n1Cc1c(F)cccc1Cl)C1CCCCC1` [NCGC00114741-01], for which the activity in assay [6] was half-maximal at 520 nM (AC50). That is a sub-micromolar value.
Consider `CCOC(=O)c1c(NC(=O)c2ccc(S(=O)(=O)N(C)C)cc2)sc2c1CCN(C)C2` [NCGC00136158-01], for which, in assay [4], the AC50 turned out to be 2310 nM.
In assay [2], `Cc1cccc(-c2[nH]c(Cc3cccc(C(N)=O)c3)nc2-c2ccc3nccnc3c2)n1` [NCGC00386726-01, IN-1130] came in with an AC50 of 2060 nM and an IC50 of 2060 nM.
`CO[C@H]1C[C@@H]2CC[C@@H](C)[C@@](O)(O2)C(=O)C(=O)N2CCCC[C@H]2C(=O)O[C@H]([C@H](C)C[C@@H]2CC[C@@H](OP(C)(C)=O)[C@H](OC)C2)CC(=O)[C@H](C)/C=C(\C)[C@@H](O)[C@@H](OC)C(=O)[C@H](C)C[C@H](C)/C=C/C=C/C=C/1C` [NCGC00346481-02, Ridaforolimus] yielded an AC50 in assay [5] of 130 nM. This lies in the sub-micromolar range.
For the compound `CCC(=O)NCC(c1ccc2c(c1)OCO2)N1CCN(c2ccccc2)CC1` (centres unmarked) [NCGC00135974-01], the activity in assay [5] (setting [7]) was half-maximal at 1160 nM (AC50).
With `CN1CCN(C2(CNC(=O)c3ccc(C(C)(C)C)cc3)CCCCC2)CC1` [NCGC00118549-01], the AC50 in assay [6] worked out at 460 nM.
`Nc1ncnc2c1nc(Cl)n2[C@@H]1O[C@@H]2COP(=O)(O)O[C@H]2[C@H]1O` [NCGC00485288-01, Tocladesine]: the AC50 in assay [1] was 460 nM; in assay [2] it was 920 nM; in assay [3], 1030 nM.
